In patent US20150267113A1, “Dimercaptothiadiazoles to Prevent Corrosion of Mild Steel by Acid Gases in Oil and Gas Products” (BAKER HUGHES INCORPORATED, priority 2014, published 2015):

Key:
[1] = kettle test of corrosion inhibition, atmospheric CO2, NACE brine/ISOPAR-M; conditions: 2.5 or 5 ppm added; 150° F. (66° C.), atmospheric CO2, 90% NACE brine and 10% ISOPAR-M; immediately after injection; blank 140 to 190 mpy
Protocol: FIG. 1 is a graph of the corrosion rate of mild steel at 150° F. (66° C.) in kettle tests at atmospheric CO2 with two different concentrations of 2,5-dimercapto-1,3,4-thiadiazole in a brine fluid.
A formulation of 10% 2,5-dimercapto-1,3,4 thiadiazole (DMTDA) in water with KOH added to adjust the pH to 8.1 was made. The corrosion inhibition of this formulation was tested in a kettle test at 150° F. (66° C.), atmospheric CO2 in a 90% NACE (National Association of Corrosion Engineers) brine and 10% ISOPAR™-M mixture.
The blank corrosion rates range from 140 to 190 mpy (mils per year). Immediately with the injection of the corrosion inhibitor, the corrosion rate lowered to below 40 mpy in the test with the addition of 2.5 or 5 ppm of 2,5-dimercapto-1,3,4-thiadiazole.

[2] = cited from earlier work

Sc1nnc(S)s1 [2,5-dimercapto-1,3,4-thiadiazole]
corrosion rate [1]: below 40 mpy | solubility in water [2]: 0.01 wt %
